Results from publication PMC6017616, “Synthesis and Evaluation of the Antioxidant Activity of Lipophilic Phenethyl Trifluoroacetate Esters by In Vitro ABTS, DPPH and in Cell-Culture DCF Assays” (Molecules : A Journal of Synthetic Chemistry and Natural …, 2018).
Structures can show the parent of a compound that is named as a salt.

Columns and labels:
[1] = ABTS assay (TEAC); conditions: for Trolox Equivalent Antioxidant Capacity (TEAC): ethanol, room temperature, 734 nm, 2 min, extrapolated at 10 μM, Trolox mM equivalent
Protocol: The antioxidant capacity of compounds 1–12 was measured according to the method of Pellegrini et al. but working at room temperature. 6-Hydroxy-2,5,7,8-tetramethylchroman-2-carboxylic acid (Trolox) was used as reference. The analyses were carried out in ethanol (0.2% of water) at room temperature and the absorbance was measured at λ = 734 nm. Each sample (1.0 mL) of ABTS^+• was obtained from the aqueous mother solution by dilution with ethanol to an absorbance of […], and 10 μL of the ethanol solution of the antioxidant was added. All compounds were analyzed at four different final concentrations ranging from 1 to 10 μM. The absorbance was measured after 2 min. Four measurements were recorded for each concentration. Each time blanks of pure solvent were run. The standard deviations of data were all below 5%. The dose-response curves were expressed as the percentage of absorbance decrease (ABTS inhibition expressed as percentage) against the amount of antioxidant concentration. Linear regression was conducted using GraphPad Prism 4.01 (2004) software. The antioxidant capacities were extrapolated at 10 μM concentration and reported as Trolox Equivalent Antioxidant Capacity (TEAC), defined as the concentration (mmol/L) of Trolox having the antioxidant capacity equivalent to that of a 1.0 mmol/L solution of the substance under investigation. Results are expressed as mean ± standard deviation. Statistical analyses were performed using the Student’s t test. The level of significance was p < 0.05 for all data.

[2] = tested on: L6 myoblasts; experiment: Intracellular ROS determination (DCF assay) in L6 myoblasts; assay type: cell-based, rat; conditions: for activity at 10 µM: Rattus norvegicus, L6, 10 min, L-6 cells, compound 10 µM, 200 µM cumene hydroperoxide, ΔF/10 min, read-out: Intracellular ROS, DCF fluorescence (Mean) relative to cumene hydroperoxide alone (100%); for antioxidant activity in cells, DCF assay: L6 and THP-1 cells
Protocol: (§1) The fluorometric DCF assay is a useful technique to evaluate the antioxidant activity of compounds in cells exposed to oxidative stress induced by cumene hydroperoxide. The analyses were carried out in two different cell lines particularly sensitive to radical production: L6 myoblasts from rat skeletal muscle and THP-1 human leukemic monocytes.
(§2) The antioxidant activity of each compound was measured by a standard intracellular fluorescent probe (DCF) assay using L6 myoblasts and THP-1 monocytes exposed to oxidative stress by the addition of cumene hydroperoxide, a radical generator. Fluorescence was measured over a 10-min period, and the ability of the compounds to eliminate the increased ROS production was determined. For L6 myoblasts, growing attached to the bottom of the flask, the medium was discarded and cells were washed twice with 5 mL phosphate buffered saline (PBS) containing 5.0 mM glucose (PBS-glucose) at 37 °C. Cells were gently scraped off with PBS-glucose at 37 °C and centrifuged at 1200 rpm for 5 min (approximately 100× g). The supernatant was discarded and the pellet resuspended in PBS-glucose. Incubation with the probe DCFH2-DA at a final concentration of 10 µM (from a stock solution of 10 mM in DMSO) was carried out for 30 min at 37 °C in the dark. At the end of the incubation, cells were washed twice, centrifuged at 1200 rpm for 5 min, and the final cell pellet was resuspended in PBS-glucose. Before the experiment was initiated, cells were allowed to recover for 1 h at room temperature in the dark. The THP-1 monocytes, growing in suspension, were centrifuged at 1200 rpm for 10 min. The supernatant was discarded, and cells were washed twice with 5 mL PBS-glucose at 37 °C to remove the serum. The pellet was successively resuspended in PBS-glucose, and the probe DCFH2-DA was added at 10 µM final concentration. From that point onwards, the protocols for the two cell types were identical. Intracellular fluorescence was measured at 37 °C using a Perkin Elmer VICTOR 3V spectrofluorometer (excitation at λ = 498 nm and emission at λ = 530 nm). […] Cells were incubated with compounds at the final designated concentration for 10 min at 37 °C before addition of the radical generator. The decrease in the intracellular DCF fluorescence relative to the fluorescence change induced by 200 μM cumene hydroperoxide alone (100%), reported as ΔF/10 min, determined the antioxidant activities. Data are reported as the mean ± standard deviation of at least four different experiments carried out in triplicate. One-way ANOVA test (non-parametric) and Bonferroni post-test (comparing all pairs of columns) were used for the statistical analyses.

[3] = Measurement of partition coefficient (logP) by UV-Vis spectrophotometry; assay type: physicochemical; conditions: 1-octanol / phosphate buffer 0.1 M pH 7.4; mean of triplicate determinations
Excerpt: Lipophilicity is a relevant property to estimate the bioavailability and dispersion of a molecule in non-aqueous media (oils, fats, and emulsions) and in the cellular environment. Generally, it can be related to logP, a parameter that evaluates the partition of a molecule between two immiscible solvents (water and 1-octanol). […] As already reported in the literature, the lipophilic character increased from hydroxytyrosol 6 to homovanillyl alcohol 5 and tyrosol 4.
The logP value of all compounds was determined as reported in the literature by UV-Vis spectrophotometry. The partition coefficient (logP) was calculated according to the following relationship: logP = logAx/(A0 − Ax). A0 was the maximum of absorbance of a solution 0.15 mM of each compound dissolved in 1-octanol; Ax is the maximum of absorbance of the organic solution containing the compound after separation from the phosphate buffer (0.1 M, pH 7.4) solution. A solution of 1-octanol saturated with the buffer was used as a blank.

[4] = tested on: THP-1 human leukemic monocytes; experiment: Intracellular ROS determination (DCF assay) in THP-1 monocytes; assay type: cell-based; conditions: 10 min, THP-1 cells, compound 10 µM, 200 µM cumene hydroperoxide, ΔF/10 min, read-out: Intracellular ROS, DCF fluorescence (Mean) relative to cumene hydroperoxide alone (100%)
Protocol: as §1, §2

[5] = tested on: THP-1 cells; experiment: Proliferation curves (cell counts) in THP-1 cells; assay type: cell-based, human; conditions: 10 µM, absence or presence of cumene hydroperoxide 200 µM
Protocol: (§3) L6 cells were seeded in 60 × 15 mm Petri dishes in 4 mL of the complete growth medium at a density of approximately 10^5 cells/well. The following day, the cells were exposed to the selected compounds 1, 5–7, 11, and 12 at a final concentration of 10 µM in the absence and presence of cumene hydroperoxide (40 µM). Cell counts using a Neubauer chamber were made every 24 h up to confluence. Each time the L6 myoblasts had to be counted, they first underwent a mild trypsinization. THP-1 cells were seeded in 24-well plates in 1 mL of the growth medium. After 24 h, the cells were exposed to 10 µM of the same compounds in the absence and presence of cumene hydroperoxide (200 µM) and incubated for an additional 24 h. Cell counts using a Neubauer chamber were made every 24 h up to confluence. The results are given as the mean ± standard deviation of two different experiments.

[6] = tested on: L6 cells; experiment: Proliferation curves (cell counts) in L6 cells; assay type: cell-based, rat; conditions: 10 µM, absence or presence of cumene hydroperoxide 40 µM
Protocol: as §3

With `Cc1c(C)c2c(c(C)c1O)CCC(C)(C(=O)O)O2` (stereo not drawn) [Trolox, 6-Hydroxy-2,5,7,8-tetramethylchroman-2-carboxylic acid] the “Trolox Equivalent Antioxidant Capacity (TEAC)” value [1] was 1.00 mM.

For `O=C(OCCc1ccc(O)cc1)C(F)(F)F` [Compound 10, 4-Hydroxyphenethyl trifluoroacetate], the activity at 10 µM [2] was 21%, the logP [3] was 1.98 ± 0.14 and the “Trolox Equivalent Antioxidant Capacity (TEAC)” value [1] was 0.36 mM. For the same molecule, the activity at 10 µM [4] was 20%.

With `O=C(OCCc1cccc(O)c1)C(F)(F)F` [Compound 9, 3-Hydroxyphenethyl trifluoroacetate] the activity at 10 µM [2] was 25%, the logP [3] was 1.96 ± 0.14 and the “Trolox Equivalent Antioxidant Capacity (TEAC)” value [1] was 0.38 mM. For the same molecule, the activity at 10 µM [4] was 28%.

For `OCCc1cccc(O)c1` [Compound 3, 3-hydroxyphenethyl alcohol], the activity at 10 µM [2] was 25%, the logP [3] was 0.66 ± 0.06 and the “Trolox Equivalent Antioxidant Capacity (TEAC)” value [1] was 0.43 mM. The activity at 10 µM [4] was 23%.

With `OCCc1ccc(O)cc1` [Compound 4, 4-hydroxyphenethyl alcohol] the activity at 10 µM [2] was 41%, the logP [3] was 0.69 ± 0.05 and the “Trolox Equivalent Antioxidant Capacity (TEAC)” value [1] was 0.45 mM. It also gave an activity at 10 µM [4] of 25%.

For `OCCc1ccc(O)c(O)c1` [Compound 6, 3,4-dihydroxyphenethyl alcohol], the activity at 10 µM [2] was 7%, the logP [3] was 0.1 ± 0.01 and the “antiradical activity / antioxidant capacity in ABTS assay” value [1] was “good antioxidant capacity”. The “Trolox Equivalent Antioxidant Capacity (TEAC)” value [1] was 0.68 mM and the activity at 10 µM [4] was 14%.

With `O=C(OCCc1ccccc1)C(F)(F)F` [Compound 7, Phenethyl trifluoroacetate] the “antioxidant activity in cells, DCF assay” value [2] was “good antioxidant activity”, the activity at 10 µM [2] was 29% and the logP [3] was 2.38 ± 0.18. For the same molecule, the “antiradical activity / antioxidant capacity in ABTS assay” value [1] was “very low antiradical activity”, the “Trolox Equivalent Antioxidant Capacity (TEAC)” value [1] was 0.00 mM and the activity at 10 µM [4] was 30%.

In the case of `COc1cc(CCOC(=O)C(F)(F)F)ccc1O` [Compound 11, 4-Hydroxy-3-methoxyphenethyl trifluoroacetate], the activity at 10 µM [2] is reported as 20%, the logP [3] is reported as 1.9 ± 0.12 and the “antiradical activity / antioxidant capacity in ABTS assay” value [1] is reported as “good antioxidant capacity”. For the same molecule, the “Trolox Equivalent Antioxidant Capacity (TEAC)” value [1] was 0.87 mM and the activity at 10 µM [4] was 23%.

With `OCCc1ccccc1` [Compound 1, phenethyl alcohol] the “antioxidant activity in cells, DCF assay” value [2] was “good antioxidant activity”, the activity at 10 µM [2] was 31% and the “antiradical activity / antioxidant capacity in ABTS assay” value [1] was “very low antiradical activity”. For the same molecule, the “Trolox Equivalent Antioxidant Capacity (TEAC)” value [1] was 0.00 mM and the activity at 10 µM [4] was 33%.

In the case of `O=C(OCCc1ccc(O)c(O)c1)C(F)(F)F` [Compound 12, 3,4-Dihydroxyphenethyl trifluoroacetate], the activity at 10 µM [2] is reported as 4%, the logP [3] is reported as 1.62 ± 0.12 and the “antiradical activity / antioxidant capacity in ABTS assay” value [1] is reported as “good antioxidant capacity”. The “Trolox Equivalent Antioxidant Capacity (TEAC)” value [1] was 0.77 mM and the activity at 10 µM [4] was 16%.

In the case of `OCCc1ccccc1O` [Compound 2, 2-hydroxyphenethyl alcohol], the activity at 10 µM [2] is reported as 23%, the logP [3] is reported as 0.72 ± 0.07 and the “antiradical activity / antioxidant capacity in ABTS assay” value [1] is reported as “good antioxidant capacity”. The “Trolox Equivalent Antioxidant Capacity (TEAC)” value [1] was 0.69 mM and the activity at 10 µM [4] was 25%.

For `COc1cc(CCO)ccc1O` [Compound 5, 4-hydroxy-3-methoxyphenethyl alcohol], the “effect on cell proliferation (cell counts)” value [5] was “inhibited THP-1 tumor cell growth”, the activity at 10 µM [2] was 22% and the logP [3] was 0.46 ± 0.02. The “antiradical activity / antioxidant capacity in ABTS assay” value [1] was “good antioxidant capacity”, the “Trolox Equivalent Antioxidant Capacity (TEAC)” value [1] was 0.81 mM and the “effect on cell proliferation (cell counts)” value [6] was “promoted L6 myoblast proliferation”. It also gave an activity at 10 µM [4] of 21%.

With `O=C(OCCc1ccccc1O)C(F)(F)F` [Compound 8, 2-Hydroxyphenethyl trifluoroacetate] the activity at 10 µM [2] was 26%, the logP [3] was 2.05 ± 0.16 and the “antiradical activity / antioxidant capacity in ABTS assay” value [1] was “good antioxidant capacity”. For the same molecule, the “Trolox Equivalent Antioxidant Capacity (TEAC)” value [1] was 0.75 mM and the activity at 10 µM [4] was 25%.
